Experimental data: patent publication US5849731A, “Indole derivatives and medical application thereof” (Toray Industries, Inc., priority 1995, dated 1998)

Tests used:
δ-opioid = biological target: T1, δ-opioid (Mus musculus, UniProt P32300); experiment: δ-opioid antagonism against DPDPE in mouse vas deferens (MVD); format: biochemical, mouse (male ddy strain)
T1 construct: Each of the vas deferens isolated from the mice was hung in a Magnus tube; from tissue; host or cells: isolated vas deferens of male ddy strain mice
Procedure: Using mouse vas deferens (MVD), antagonistic compounds were examined for antagonism against a δ-opioid agonist DPDPE, and agonistic compounds were examined for inhibitory activity against MVD contraction by electric stimulation, and for antagonism by a δ-opioid antagonist NTI.
Male ddy strain mice were used in this experiment. Each of the vas deferens isolated from the mice was hung in a Magnus tube which was filled with a Krebes-Henseleit solution (NaCl […]; KCl 4.7 mM; CaCl2 2.5 mM; KH2 PO4 1.1 mM; NaHCO3 25 mM; glucose 11 mM), and aerated with a gas of 5% carbon dioxide and 95% oxygen and maintained at 37° C. Electric stimulation was applied through upper and lower ring-shaped platinum electrodes at 0.1 Hz and 5.0 mS. Tissue contraction was recorded on a polygraph using an isometric transducer.
Initially, DPDPE was added in a cumulative manner to determine the IC50 value (concentration for 50% inhibition of contraction induced by electric stimulation). Next, 100 nM of a sample compound was added to the system beforehand, and 20 minutes later, DPDPE was added in a cumulative manner. According to the above procedure, the ratio of the IC50 value of DPDPE in the presence of the sample compound to that in the absence of it was determined, and the pA2 value was calculated in accordance with the Schild, et al.'s method [Schild, H. O., Br. J. Pharamacol. Chamother. 4, 277 (1949)].

capsaicin-induced cough = experiment: Antitussive action in rat, capsaicin-induced cough; format: in vivo; conditions: ip, 0.5 h, dosage for 50% cough inhibition, intraperitoneal, 10% DMSO solution, 30 minutes after administration
Procedure: Evaluation of Antitussive Action in Rat as a Model for Capsaicin-Induced Cough
Cough was induced by forcing rats to inhale capsaicin (60 μM) which was nebulized by an ultrasonic nebulizer, and fed to caps over the rats' heads through silicone tubes by a respirator. Capsaicin was fed for inhalation at a rate of 70 times/min. and 10 ml each time.
Two hundred and seventy minutes before the drug administration, capsaicin was inhaled for 5 minutes, and inducement of coughing was confirmed during this period. Thirty minutes after the drug administration, capsaicin was inhaled for 5 minutes, and the number of induced coughs during capsaicin inhalation was counted. Antitussive effect was evaluated by determining an inhibitory ratio, namely, the ratio of the number of coughs after the drug administration to that before the drug administration. Capsaicin was dissolved in saline. Each drug was dissolved in a 10% DMSO solution and intraperitoneally administered. The effect of the drug is expressed with an ED50 value which is the dosage for 50% cough inhibition

T1 sequence (P32300 whole entry): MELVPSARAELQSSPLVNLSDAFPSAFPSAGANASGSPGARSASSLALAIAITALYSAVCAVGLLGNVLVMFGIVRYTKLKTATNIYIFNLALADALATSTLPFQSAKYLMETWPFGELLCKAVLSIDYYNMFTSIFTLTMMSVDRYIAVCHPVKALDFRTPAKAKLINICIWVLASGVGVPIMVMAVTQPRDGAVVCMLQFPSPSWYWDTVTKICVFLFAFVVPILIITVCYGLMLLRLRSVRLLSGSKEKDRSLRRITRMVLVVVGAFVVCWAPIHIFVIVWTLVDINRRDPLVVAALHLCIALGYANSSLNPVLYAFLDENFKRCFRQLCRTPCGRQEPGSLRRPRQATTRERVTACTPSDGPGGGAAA

SMILES | Kb (δ-opioid) [nM] | ED50 (capsaicin-induced cough) [µg/kg] | other results
COc1cc2c3c(c1)c1c(n3CCC2)[C@@H]2Oc3c(O)ccc4c3[C@@]23CCN(CC2CC2)[C@H](C4)[C@]3(O)C1 [Compound 19, 17-cyclopropylmethyl-6,7-didehydro-4,5α-epoxy-3,14β-dihydroxy-1',7'-trimethylene-5'-methoxy-6,7,2',3'-indolomorphinan] | 1 |  | 
Oc1ccc2c3c1O[C@H]1c4c(c5cccc6c5n4CC6)C[C@@]4(O)[C@@H](C2)N(CC2CC2)CC[C@]314 [Compound 1, 17-Cyclopropylmethyl-6,7-didehydro-4,5α-epoxy-3,14β-dihydroxy-1',7'-ethylene-6,7,2',3'-indolomorphinan] |  | 9.14 | pA2 (δ-opioid; MVD, 100 nM sample compound added 20 minutes before cumulative DPDPE, Schild method): 9.2
Oc1ccc2c3c1O[C@H]1c4c(c5cc(Cl)cc6c5n4CCC6)C[C@@]4(O)[C@@H](C2)N(CC2CC2)CC[C@]314 [Compound 8, 17-cyclopropylmethyl-6,7-didehydro-4,5α-epoxy-3,14β-dihydroxy-1',7'-trimethylene-5'-chloro-6,7,2',3'-indolomorphinan] | 5.01 |  | 
COc1ccc2c3c1c1c(n3CCC2)[C@@H]2Oc3c(O)ccc4c3[C@@]23CCN(CC2CC2)[C@H](C4)[C@]3(O)C1 [Compound 27, 17-cyclopropylmethyl-6,7-didehydro-4,5α-epoxy-3,14β-dihydroxy-1',7'-trimethylene-4'-methoxy-6,7,2',3'-indolomorphinan] | 12.6 |  | 
COc1ccc2c3c1O[C@H]1c4c(c5cc(Cl)cc6c5n4CCC6)C[C@@]4(O)[C@@H](C2)N(CC2CC2)CC[C@]314 [Compound 18, 17-cyclopropylmethyl-6,7-didehydro-4,5α-epoxy-3-methoxy-14β-hydroxy-1',7'-trimethylene-5'-chloro-6,7,2',3'-indolomorphinan] |  | 13.4 | 
COc1ccc2c3c1O[C@H]1c4c(c5cccc6c5n4CCCC6)C[C@@]4(O)[C@@H](C2)N(CC2CC2)CC[C@]314 [Compound 15, 17-cyclopropylmethyl-6,7-didehydro-4,5α-epoxy-3-methoxy-14β-hydroxy-1',7'-tetramethylene-6,7,2',3'-indolomorphinan] |  | 9.68 | 
Oc1ccc2c3c1O[C@H]1c4c(c5cccc6c5n4CCS6)C[C@@]4(O)[C@@H](C2)N(CC2CC2)CC[C@]314 [Compound 22, 17-cyclopropylmethyl-6,7-didehydro-4,5α-epoxy-3,14β-dihydroxy-7',1'-epithioethano-6,7,2',3'-indolomorphinan] | 0.794 |  | 
COc1ccc2c3c1O[C@H]1c4c(c5cccc6c5n4CCC6(C)C)C[C@@]4(O)[C@@H](C2)N(CC2CC2)CC[C@]314 [Compound 40, 17-cyclopropylmethyl-6,7-didehydro-4,5α-epoxy-3-methoxy-14β-hydroxy-1',7'-(1,1-dimethylpropano)-6,7,2',3'-indolomorphinan] |  | 2.46 | 
Oc1ccc2c3c1O[C@H]1c4c(c5cccc6c5n4CCCCC6)C[C@@]4(O)[C@@H](C2)N(CC2CC2)CC[C@]314 [Compound 21, 17-cyclopropylmethyl-6,7-didehydro-4,5α-epoxy-3,14β-dihydroxy-1',7'-pentamethylene-6,7,2',3'-indolomorphinan] | 10 |  | 
CO[C@@]12Cc3c(n4c5c(cccc35)CCC4)[C@@H]3Oc4c(O)ccc5c4[C@@]31CCN(CC1CC1)[C@@H]2C5 [Compound 66, 17-cyclopropylmethyl-6,7-didehydro-4,5α-epoxy-3-hydroxy-14β-methoxy-1',7'-trimethylene-6,7,2',3'-indolomorphinan] | 0.316 |  | 
CC1(C)Cc2cccc3c4c(n(c23)C1)[C@@H]1Oc2c(O)ccc3c2[C@@]12CCN(CC1CC1)[C@H](C3)[C@]2(O)C4 [Compound 26, 17-cyclopropylmethyl-6,7-didehydro-4,5α-epoxy-3,14β-dihydroxy-1',7'-(2,2-dimethylpropano)-6,7,2',3'-indolomorphinan] | 3.16 |  | 
Oc1ccc2c3c1O[C@H]1c4c(c5cccc6c5n4CCO6)C[C@@]4(O)[C@@H](C2)N(CC2CC2)CC[C@]314 [Compound 23, 17-cyclopropylmethyl-6,7-didehydro-4,5α-epoxy-3,14β-dihydroxy-7',1'-epoxyethano-6,7,2',3'-indolomorphinan] | 0.158 |  | 
COc1ccc2c3c1O[C@H]1c4c(c5ccc6cccc7c6c5n4CC7)C[C@@]4(O)[C@@H](C2)N(CC2CC2)CC[C@]314 [Compound 42, 17-cyclopropylmethyl-6,7-didehydro-4,5α-epoxy-3-methoxy-14β-hydroxy-1',3"-ethylene-6',7'-benzo-6,7,2',3'-indolomorphinan] |  | 21.1 | 
COc1ccc2c3c1O[C@H]1c4c(c5cc(C)cc6c5n4CCC6)C[C@@]4(O)[C@@H](C2)N(CC2CC2)CC[C@]314 [Compound 13, 17-cyclopropylmethyl-6,7-didehydro-4,5α-epoxy-3-methoxy-14β-hydroxy-1',7'-trimethylene-5'-methyl-6,7,2',3'-indolomorphinan] |  | 5.33 | 
COc1ccc2c3c1O[C@H]1c4c(c5ccc(OC)c6c5n4CCC6)C[C@@]4(O)[C@@H](C2)N(CC2CC2)CC[C@]314 [Compound 12, 17-cyclopropylmethyl-6,7-didehydro-4,5α-epoxy-3,6'-dimethoxy-14β-hydroxy-1',7'-trimethylene-6,7,2',3'-indolomorphinan] |  | 2.5 | 
C=CCN1CC[C@]23c4c5ccc(OC)c4O[C@H]2c2c(c4cccc6c4n2CCC6)C[C@@]3(O)[C@H]1C5 [Compound 34, 17-allyl-6,7-didehydro-4,5α-epoxy-3-methoxy-14β-hydroxy-1',7'-trimethylene-6,7,2',3'-indolomorphinan] |  | 1.1 | 
COc1ccc2c3c1O[C@H]1c4c(c5c(C)ccc6c5n4CCC6)C[C@@]4(O)[C@@H](C2)N(CC2CC2)CC[C@]314 [Compound 14, 17-cyclopropylmethyl-6,7-didehydro-4,5α-epoxy-3-methoxy-14β-hydroxy-1',7'-trimethylene-4'-methyl-6,7,2',3'-indolomorphinan] |  | 23.8 | 
Oc1ccc2c3c1O[C@H]1c4c(c5cc(Br)cc6c5n4CCC6)C[C@@]4(O)[C@@H](C2)N(CC2CC2)CC[C@]314 [Compound 20, 17-cyclopropylmethyl-6,7-didehydro-4,5α-epoxy-3,14β-dihydroxy-1',7'-trimethylene-5'-bromo-6,7,2',3'-indolomorphinan] | 3.98 |  | 
Oc1ccc2c3c1O[C@H]1c4c(c5c(C(F)(F)F)ccc6c5n4CCC6)C[C@@]4(O)[C@@H](C2)N(CC2CC2)CC[C@]314 [Compound 24, 17-cyclopropylmethyl-6,7-didehydro-4,5α-epoxy-3,14β-dihydroxy-1',7'-trimethylene-4'-trifluoromethyl-6,7,2',3'-indolomorphinan] | 10 |  | 
C=CCN1CC[C@]23c4c5ccc(O)c4O[C@H]2c2c(c4cccc6c4n2CCC6)C[C@@]3(O)[C@H]1C5 [Compound 30, 17-allyl-6,7-didehydro-4,5α-epoxy-3,14β-dihydroxy-1',7'-trimethylene-6,7,2',3'-indolomorphinan] | 12.6 |  | 
COc1ccc2c3c1O[C@H]1c4c(c5cc(F)cc6c5n4CCC6)C[C@@]4(O)[C@@H](C2)N(CC2CC2)CC[C@]314 [Compound 16, 17-cyclopropylmethyl-6,7-didehydro-4,5α-epoxy-3-methoxy-14β-hydroxy-1',7'-trimethylene-5'-fluoro-6,7,2',3'-indolomorphinan] |  | 4.73 | 
COc1ccc2c3c1O[C@H]1c4c(c5cccc6c5n4Cc4ccccc4-6)C[C@@]4(O)[C@@H](C2)N(CC2CC2)CC[C@]314 [Compound 17, 17-cyclopropylmethyl-6,7-didehydro-4,5α-epoxy-3-methoxy-14β-hydroxy-1',7'-(2",3"-benzotrimethylene)-6,7,2',3'-indolomorphinan] |  | 5.02 | 
COc1ccc2c3c1O[C@H]1c4c(c5c(OC)ccc6c5n4CCC6)C[C@@]4(O)[C@@H](C2)N(CC2CC2)CC[C@]314 [Compound 44, 17-cyclopropylmethyl-6,7-didehydro-4,5α-epoxy-3,4'-dimethoxy-14β-hydroxy-1',7'-trimethylene-6,7,2',3'-indolomorphinan] |  | 10.9 | 
COc1ccc2c3c1O[C@H]1c4c(c5cc(Br)cc6c5n4CCC6)C[C@@]4(O)[C@@H](C2)N(CC2CC2)CC[C@]314 [Compound 35, 17-cyclopropylmethyl-6,7-didehydro-4,5α-epoxy-3-methoxy-14β-hydroxy-1',7'-trimethylene-5'-bromo-6,7,2',3'-indolomorphinan] |  | 21.2 | 
